pIC50: −log10 of the molar value. “And” between values parts separate entries of the source, which are not always exact repeats. Equal values may be shown once.
Columns and labels:
[1] = target: T1, Genome polyprotein (dengue virus type 2, UniProt P29990); format: functional, Thailand/16681/1984
[2] = target: T1, Genome polyprotein; format: functional, Thailand/16681/1984; remark: listed apart in the source

T1 sequence (P29990 1346-1475 limits assumed): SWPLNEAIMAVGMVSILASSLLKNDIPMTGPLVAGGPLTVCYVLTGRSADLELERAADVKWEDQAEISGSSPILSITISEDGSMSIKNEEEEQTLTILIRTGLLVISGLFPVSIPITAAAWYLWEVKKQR
T1 sequence (P29990 1476-2093 limits assumed): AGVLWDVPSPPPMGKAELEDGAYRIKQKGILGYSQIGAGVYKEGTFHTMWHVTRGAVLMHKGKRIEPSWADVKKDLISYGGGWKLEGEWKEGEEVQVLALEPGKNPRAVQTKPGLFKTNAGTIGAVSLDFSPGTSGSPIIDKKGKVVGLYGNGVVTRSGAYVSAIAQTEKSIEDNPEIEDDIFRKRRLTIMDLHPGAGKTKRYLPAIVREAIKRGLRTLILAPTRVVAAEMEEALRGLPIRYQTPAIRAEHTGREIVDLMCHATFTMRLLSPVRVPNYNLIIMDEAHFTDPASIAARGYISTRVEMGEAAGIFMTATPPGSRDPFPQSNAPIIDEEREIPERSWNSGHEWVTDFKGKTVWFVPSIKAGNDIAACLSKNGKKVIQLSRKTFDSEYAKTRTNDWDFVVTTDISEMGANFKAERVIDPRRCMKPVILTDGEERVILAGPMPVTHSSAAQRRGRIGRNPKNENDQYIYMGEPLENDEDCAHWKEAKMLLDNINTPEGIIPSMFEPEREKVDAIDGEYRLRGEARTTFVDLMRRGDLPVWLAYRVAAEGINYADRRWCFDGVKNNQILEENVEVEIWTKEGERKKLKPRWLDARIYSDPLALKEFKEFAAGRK

Structure (SMILES)	pIC50 [1]	pIC50 [2]	IC50 [1]
CCn1c(=O)c(N2CC[C@H](CO)C2)nc2ccc(C(N)=O)cc21	< 4.00	4.09	–
O=C(Nc1cc(Cl)cc(C(=O)Nc2ccc3c(c2)C[C@H](O)C3)c1)OCc1ccccc1	< 4.00	< 4.00	–
COCc1cc(NC(=O)OCc2ccccc2)cc(C(=O)Nc2cccc(CN)c2)c1	< 4.00	< 4.00	–
CC(C)c1cc(NC(=O)OCc2ccccc2)cc(C(=O)Nc2cccc(CN)c2)c1	< 4.00	4.17	–
CNC(=O)C[C@H](Nc1ccccn1)c1cc(Cl)cc(Br)c1	< 4.00	< 4.00	–
N[C@H]1Cc2ccc(NC(=O)c3cc(Cl)cc(NC(=O)OCc4ccccc4)c3)cc2C1	4.19	4.48	–
CCn1c(=O)c(N2CC[C@H](CO)C2)nc2ccc(C(=O)N(C)C)cc21	< 4.00	< 4.00	–
NCc1ccc(I)c(NC(=O)c2cc(Cl)cc(NC(=O)OCc3ccccc3)c2)c1	< 4.00	4.28	–
CCn1c(=O)c(N2CC[C@H](CO)C2)nc2cc(C(N)=O)ccc21	< 4.00	< 4.00	–
O=C(Nc1cc(Cl)cc(C(=O)Nc2ccc(S(=O)(=O)N3CCNCC3)cc2)c1)OCc1ccccc1	< 4.00	< 4.00	–
Cc1c(C(=O)Nc2cccc(CN)c2)cc(C2CC2)n1C	< 4.00	< 4.00	–
O=C(Nc1cc(Cl)cc(C(=O)Nc2ccc3c(c2)OCO3)c1)OCc1ccccc1	< 4.00	< 4.00	–
NCc1cccc(NC(=O)c2cc(Cl)cc([C@H]3CCCCN3)c2)c1	< 4.00	< 4.00	–
O=C(Nc1cc(Cl)cc(C(=O)Nc2cccc([C@H]3C[C@H]3C(=O)O)c2)c1)OCc1ccccc1	–	4.71 and 4.59 and 4.57 and 4.60	12.3 µM (3×) and 10.2 µM and 15.6 µM and 14.8 µM
CS(=O)(=O)c1cc(CN)cc(NC(=O)c2cc(Cl)cc(NC(=O)OCc3ccccc3)c2)c1	< 4.00	< 4.00	–
O=C(O)COc1cccc(NC(=O)c2cc(Cl)cc(NC(=O)OCc3ccccc3)c2)c1	4.55 and 4.65	4.34	–
CNC(=O)[C@H](Nc1cccc(N)n1)c1cc(Cl)cc(CN)c1	< 4.00	< 4.00	–
Cc1c(C(=O)Nc2cccc(CN)c2)cc(C(C)C)n1C	< 4.00	< 4.00	–
O=C1NC[C@H](c2ccc(OCc3ccccc3)c(Br)c2)N1C(=O)OCc1ccccc1	< 4.00	< 4.00	–
O=Cc1cc(Cl)cc(NC(=O)OCc2ccccc2)c1	< 4.00	< 4.00	–
NCCNS(=O)(=O)c1ccc(NC(=O)c2cc(Cl)cc(NC(=O)OCc3ccccc3)c2)cc1	< 4.00	4.47	–

Structure (SMILES)	pIC50 [1]	pIC50 [2]	IC50 [1]
O=C(Nc1cc(Cl)cc(C(=O)Nc2ccc(C3CCNCC3)cc2)c1)OCc1ccccc1	4.38	4.81 and 4.68	–
CCc1cc(C(=O)Nc2cccc(CN)c2)sc1C	< 4.00	< 4.00	–
Cc1onc(C(=O)Nc2cccc(CN)c2)c1COc1cccc(F)c1	< 4.00	< 4.00	–
NCc1ccc(C#CCO)c(NC(=O)c2cc(Cl)cc(NC(=O)OCc3ccccc3)c2)c1	< 4.00	4.42	–
Cc1nn(CCO)c(C(F)F)c1C(=O)Nc1cccc(CN)c1	< 4.00	< 4.00	–
NCc1cccc(NC(=O)c2c(C(F)(F)F)nc3n2CCCC3)c1	< 4.00	< 4.00	–
Cc1cnnc(C(=O)Nc2cccc(CN)c2)c1	< 4.00	< 4.00	–
N#CC[C@H](N)c1cccc(NC(=O)c2cc(Cl)cc(NC(=O)OCc3ccccc3)c2)c1	< 4.00	< 4.00	–
CCn1c(=O)c(N2CC[C@H](CO)C2)nc2ccc(C(=O)NCc3ccccc3)cc21	< 4.00	4.02	–
O=C(Nc1cc(Cl)cc(C(=O)Nc2ccc(OC3CNC3)cc2)c1)OCc1ccccc1	< 4.00	4.19	–
Cc1nc(N2CCOCC2)sc1CC(=O)Nc1cccc(CN)c1	< 4.00	< 4.00	–
NCCCCc1ccc(NC(=O)c2cc(Cl)cc(NC(=O)OCc3ccccc3)c2)cc1	4.48	4.93 and 4.71	–
NCc1cccc(NC(=O)c2cc(NC(=O)OCc3ccccc3)cc(C(F)(F)F)c2)c1	< 4.00	< 4.00	–
CS(=O)(=O)c1ccc(CN)cc1NC(=O)c1cc(Cl)cc(NC(=O)OCc2ccccc2)c1	< 4.00	< 4.00	–
O=C(O)CCc1ccc(NC(=O)c2cc(Cl)cc(NC(=O)OCc3ccccc3)c2)cc1	4.75	4.37	–
CC(C)c1occ(C(F)(F)F)c1C(=O)Nc1cccc(CN)c1	< 4.00	< 4.00	–
CCn1c(=O)c(N2CC[C@H](CO)C2)nc2cc(C(=O)N(C)C)ccc21	< 4.00	< 4.00	–
CC(C)(C)OC(=O)NCc1ccc(I)c(NC(=O)c2cc(Cl)cc(NC(=O)OCc3ccccc3)c2)c1	< 4.00	< 4.00	–
CNC(=O)[C@H](Nc1ccccn1)c1cc(Cl)cc(CN)c1	< 4.00	< 4.00	–
NCc1nc(-c2ccc(NC(=O)c3cc(Cl)cc(NC(=O)OCc4ccccc4)c3)cc2)n[nH]1	< 4.00	4.32	–
NCc1cccc(NC(=O)[C@H]2CC(=O)Nc3ccc(Br)cc32)c1	< 4.00	< 4.00	–

Structure (SMILES)	pIC50 [1]	pIC50 [2]	IC50 [1]
Cc1cc(C(=O)Nc2cccc(CN)c2)c2sc(N)nc2n1	< 4.00	< 4.00	–
O=C(Nc1cc(Cl)cc(C(=O)Nc2ccc([C@H]3CNCCO3)cc2)c1)OCc1ccccc1	< 4.00	< 4.00	–
Cn1nc(C(=O)Nc2cccc(CN)c2)cc1C1CC1	< 4.00	< 4.00	–
NC[C@H]1C[C@H]1NC(=O)c1cc(Cl)cc(NC(=O)OCc2ccccc2)c1	< 4.00	< 4.00	–
CCc1onc(C2CCOCC2)c1C(=O)Nc1cccc(CN)c1	< 4.00	< 4.00	–
O=C(Nc1cc(Cl)cc(C(=O)Nc2ccc(N3CCNCC3)c(F)c2)c1)OCc1ccccc1	< 4.00	4.13	–
O=C(Nc1ccc2c(c1)CNC2)c1cc(O)nc(C2CC2)c1	< 4.00	< 4.00	–
N[C@H]1CC[C@H](c2ccc(NC(=O)c3cc(Cl)cc(NC(=O)OCc4ccccc4)c3)cc2)C1	4.07	4.99 and 5.08 and 4.89	–
O=C(Nc1cc(Cl)cc(C(=O)Nc2cccc(C(=O)O)c2)c1)OCc1ccccc1	4.54 and 4.60	4.37	–
N[C@H]1CCN(c2ccc(NC(=O)c3cc(Cl)cc(NC(=O)OCc4ccccc4)c3)cc2)C1	< 4.00	4.45	–
NC[C@H]1C[C@@H]1NC(=O)c1cc(Cl)cc(NC(=O)OCc2ccccc2)c1	< 4.00	< 4.00	–
O=C(Nc1cc(Cl)cc(C(=O)Nc2ccc3c(c2)COC3)c1)OCc1ccccc1	< 4.00	< 4.00	–
CCn1c(=O)c(N2CC[C@H](CO)C2)nc2cc(C(=O)NS(C)(=O)=O)ccc21	< 4.00	< 4.00	–
CCNC(=O)c1ccc2nc(N3CC[C@H](CO)C3)c(=O)n(CC)c2c1	< 4.00	4.04	–
O=C(Nc1cc(Cl)cc(C(=O)Nc2ccc(N3CCCNCC3)cc2)c1)OCc1ccccc1	< 4.00	4.56	–
NCc1cccc(NC(=O)[C@H]2CCCN(C(=O)CC3CC3)C2)c1	< 4.00	< 4.00	–
CCn1c(=O)c(N2CC[C@H](CO)C2)nc2cc(C(=O)NCc3ccccc3)ccc21	< 4.00	< 4.00	–
NCc1cccc(NC(=O)c2nc(C3CC3)n(-c3ccccc3Cl)n2)c1	< 4.00	< 4.00	–
O=C(Nc1cc(Cl)cc(C(=O)Nc2ccc([C@H]3CCNC3)cc2)c1)OCc1ccccc1	4.40	4.71 and 4.61	–
CS(=O)(=O)c1ccc(NC(=O)c2cc(Cl)cc(NC(=O)OCc3ccccc3)c2)cc1	< 4.00	< 4.00	–
NCc1cc(NC(=O)c2cc(Cl)cc(NC(=O)OCc3ccccc3)c2)cc(C2CC2)c1	< 4.00	4.14	–

Structure (SMILES)	pIC50 [1]	pIC50 [2]	IC50 [1]
CCOc1cccc(-c2ccc(NS(=O)(=O)c3cc(F)c(Cl)cc3C(=O)O)cc2)c1	5.11	5.03	–
O=C(Nc1cc(Cl)cc(C(=O)Nc2ccc(CC3CCNCC3)cc2)c1)OCc1ccccc1	4.48	4.85 and 4.76	–
NCc1cccc(NC(=O)c2cc(Br)cc(-n3cnnn3)c2)c1	< 4.00	< 4.00	–
C[C@H]1CNC[C@@H]1c1ccc(NC(=O)c2cc(Cl)cc(NC(=O)OCc3ccccc3)c2)cc1	4.01	4.65	–
CCn1c(=O)c(N2CC[C@@H](CO)C2)nc2ccc(C(=O)O)cc21	< 4.00	< 4.00	–
CNC(=O)C[C@H](Nc1ccccn1)c1cc(Cl)cc(CN)c1	< 4.00	< 4.00	–
O=C(Nc1cc(Cl)cc(C(=O)Nc2ccc3c(c2)CCNC3)c1)OCc1ccccc1	< 4.00	4.30 and 4.22	–
CCNC(=O)c1ccc2c(c1)nc(N1CC[C@H](CO)C1)c(=O)n2CC	< 4.00	< 4.00	–
O=C(Nc1cc(Cl)cc(C(=O)Nc2ccc([C@]34CNC[C@H]3C4)cc2)c1)OCc1ccccc1	< 4.00	< 4.00	–
CN(C)[C@H](C(=O)Nc1cccc(CN)c1)c1cc(Cl)cc(Cl)c1	< 4.00	< 4.00	–
NCc1cccc(NC(=O)c2cc(Cl)cc(Cl)c2OCc2ccccc2)c1	4.37	4.35	–
O=C(Nc1cc(Cl)cc(C(=O)Nc2ccc(C3CNC3)cc2)c1)OCc1ccccc1	< 4.00	4.41	–
O=C(Nc1cc(Cl)cc(C(=O)Nc2ccc3c(c2)C(=O)OC3)c1)OCc1ccccc1	< 4.00	< 4.00	–
N#Cc1cc(NC(=O)OCc2ccccc2)cc(C(=O)Nc2cccc(CN)c2)c1	< 4.00	< 4.00	–
Cc1cc(C(=O)Nc2cccc(CN)c2)c2c(n1)CCCC2	< 4.00	< 4.00	–
Cc1[nH]c2ccc(Br)cc2c1CC(=O)Nc1cccc(CN)c1	< 4.00	< 4.00	–
O=C(O)Cc1cccc(NC(=O)c2cc(Cl)cc(NC(=O)OCc3ccccc3)c2)c1	4.40	4.13	–
NCc1cccc(NC(=O)c2cc(C(F)(F)F)cnc2N2CCOCC2)c1	< 4.00	< 4.00	–
C[C@H]1C[C@@H](C(=O)Nc2cccc(CN)c2)CCO1	< 4.00	< 4.00	–

From ChEMBL document CHEMBL5604063, “ASAP - DENV-2 NS2B-NS3 protease fluorescence dose response” (2024)
